# Values quoted from earlier work in article PMC8288134, “Synthesis, potential antitumor activity, cell cycle analysis, and multitarget mechanisms of novel hydrazones incorporating a 4-methylsulfonylbenzene scaffold: a molecular docking study” (Journal of Enzyme Inhibition and Medicinal Chemistry, 2021).
# Experiments:
# MDA-MB-435 = test system: MDA-MB-435; parameters: method as in https://dtp.cancer.gov/dtpstandard/dwindex/index.jsp; details: reference drugs, ref https://dtp.cancer.gov/dtpstandard/dwindex/index.jsp; cited from earlier work
# [1] = test system: melanoma tumour cell lines; details: cited from earlier work; for GI50: read-out: GI50 (subpanel average), reference drugs, ref https://dtp.cancer.gov/dtpstandard/dwindex/index.jsp; for TGI (subpanel average): reference drugs, ref https://dtp.cancer.gov/dtpstandard/dwindex/index.jsp
# [2] = test system: renal cancer tumour cell lines; details: cited from earlier work; for GI50: read-out: GI50 (subpanel average), reference drugs, ref https://dtp.cancer.gov/dtpstandard/dwindex/index.jsp; for TGI (subpanel average): reference drugs, ref https://dtp.cancer.gov/dtpstandard/dwindex/index.jsp
# MALME-3M = test system: MALME-3M; parameters: method as in https://dtp.cancer.gov/dtpstandard/dwindex/index.jsp; details: reference drugs, ref https://dtp.cancer.gov/dtpstandard/dwindex/index.jsp; cited from earlier work
# SF-268 = test system: SF-268; parameters: method as in https://dtp.cancer.gov/dtpstandard/dwindex/index.jsp; details: reference drugs, ref https://dtp.cancer.gov/dtpstandard/dwindex/index.jsp; cited from earlier work
# PC-3 = test system: PC-3; parameters: method as in https://dtp.cancer.gov/dtpstandard/dwindex/index.jsp; details: reference drugs, ref https://dtp.cancer.gov/dtpstandard/dwindex/index.jsp; cited from earlier work
# NCI-H322M = test system: NCI-H322M; parameters: method as in https://dtp.cancer.gov/dtpstandard/dwindex/index.jsp; details: reference drugs, ref https://dtp.cancer.gov/dtpstandard/dwindex/index.jsp; cited from earlier work
# SW-620 = test system: SW-620; parameters: method as in https://dtp.cancer.gov/dtpstandard/dwindex/index.jsp; details: reference drugs, ref https://dtp.cancer.gov/dtpstandard/dwindex/index.jsp; cited from earlier work
# UACC-257 = test system: UACC-257; parameters: method as in https://dtp.cancer.gov/dtpstandard/dwindex/index.jsp; details: reference drugs, ref https://dtp.cancer.gov/dtpstandard/dwindex/index.jsp; cited from earlier work
# HOP-92 = test system: HOP-92; parameters: method as in https://dtp.cancer.gov/dtpstandard/dwindex/index.jsp; details: reference drugs, ref https://dtp.cancer.gov/dtpstandard/dwindex/index.jsp; cited from earlier work
# 786-0 = test system: 786-0; parameters: method as in https://dtp.cancer.gov/dtpstandard/dwindex/index.jsp; details: reference drugs, ref https://dtp.cancer.gov/dtpstandard/dwindex/index.jsp; cited from earlier work
# [3] = test system: leukaemia tumour cell lines; details: cited from earlier work; for GI50: read-out: GI50 (subpanel average), reference drugs, ref https://dtp.cancer.gov/dtpstandard/dwindex/index.jsp; for TGI (subpanel average): reference drugs, ref https://dtp.cancer.gov/dtpstandard/dwindex/index.jsp
# A498 = test system: A498; parameters: method as in https://dtp.cancer.gov/dtpstandard/dwindex/index.jsp; details: reference drugs, ref https://dtp.cancer.gov/dtpstandard/dwindex/index.jsp; cited from earlier work
# SF-295 = test system: SF-295; parameters: method as in https://dtp.cancer.gov/dtpstandard/dwindex/index.jsp; details: reference drugs, ref https://dtp.cancer.gov/dtpstandard/dwindex/index.jsp; cited from earlier work
# [4] = test system: breast cancer tumour cell lines; details: cited from earlier work; for GI50: read-out: GI50 (subpanel average), reference drugs, ref https://dtp.cancer.gov/dtpstandard/dwindex/index.jsp
# NCI-H460 = test system: NCI-H460; parameters: method as in https://dtp.cancer.gov/dtpstandard/dwindex/index.jsp; details: reference drugs, ref https://dtp.cancer.gov/dtpstandard/dwindex/index.jsp; cited from earlier work
# U251 = test system: U251; parameters: method as in https://dtp.cancer.gov/dtpstandard/dwindex/index.jsp; details: reference drugs, ref https://dtp.cancer.gov/dtpstandard/dwindex/index.jsp; cited from earlier work
# [5] = read-out: LC50 (subpanel average), reference drugs, ref https://dtp.cancer.gov/dtpstandard/dwindex/index.jsp
Structure (SMILES),GI50 (MDA-MB-435),GI50 [1],TGI (subpanel average) [1],GI50 [2],TGI (subpanel average) [2],GI50 (MALME-3M),GI50 (SF-268),GI50 (PC-3),GI50 (NCI-H322M),GI50 (SW-620),GI50 (UACC-257),GI50 (HOP-92),GI50 (786-0),GI50 [3],TGI (subpanel average) [3],GI50 (A498),GI50 (SF-295),GI50 [4],GI50 (NCI-H460),GI50 (U251),other results
"C#Cc1cccc(Nc2ncnc3cc(OCCOC)c(OCCOC)cc23)c1 [Erlotinib, erlotinib]",19.9 µM,23.7 µM,77.89 µM,2.46 µM,42.59 µM,1.58 µM,15.8 µM,39.8 µM,0.1 µM,79.4 µM,100 µM,3.98 µM,10 µM,27.9 µM,96.57 µM,2.51 µM,15.8 µM,24.7 µM,6.31 µM,25.1 µM,"CC50 [1, 5]: 93.3 µM; CC50 [2, 5]: 89.2 µM; CC50 [3, 5]: > 100 µM; CC50 [4, 5]: 96.4 µM"
"CS(=O)(=O)c1ccc(C(=O)Nc2ccc(Cl)c(-c3ccccn3)c2)c(Cl)c1 [Vismodegib, vismodegib]",31.6 µM,–,–,–,–,39.8 µM,39.8 µM,25.1 µM,100 µM,63.1 µM,50.1 µM,25.1 µM,–,–,–,31.6 µM,31.6 µM,–,39.8 µM,50.1 µM,–
"COc1cc2ncnc(Nc3ccc(F)c(Cl)c3)c2cc1OCCCN1CCOCC1 [Gefitinib, gefitinib]",3.16 µM,3.68 µM,12.49 µM,1.41 µM,12.50 µM,3.98 µM,2.51 µM,–,0.063 µM,–,2.51 µM,0.316 µM,3.16 µM,2.56 µM,12.07 µM,–,10 µM,4.67 µM,3.16 µM,3.16 µM,"TGI (subpanel average) ([4]; reference drugs, ref https://dtp.cancer.gov/dtpstandard/dwindex/index.jsp): 18.62 µM"
